{"source": "paper PMC7467243", "about": "“Response to and recovery from treatment in human liver-mimetic clinostat spheroids: a model for assessing repeated-dose drug toxicity” (Toxicology Research, 2020)", "key": {"[1]": {"settings": "cited from earlier work; for Biological half-life (h): in vivo"}, "[2]": {"settings": "cited from earlier work"}, "HepG2/C3A spheroids": {"test_system": "HepG2/C3A spheroids", "set-up": "method as in earlier work", "settings": "cited from earlier work"}, "[3]": {"settings": "cited from earlier work", "remark": "listed apart in the source"}, "HepG2–C3A spheroids": {"test_system": "HepG2–C3A spheroids", "description": "Three hundred 21-day old spheroids (corresponding to ~25 million cells or 3.5 mg protein) were gently pipetted (using a cut-tip) into each 10 ml bioreactor before treatment to provide ample material for analysis. To initiate drug treatment, the bioreactor rotation was stopped for 30 s to allow the spheroids to settle to the bottom of the bioreactor. […] Each narrow range experiment was carried out in duplicate and ATP was measured in technical triplicates for each sample. […] Data were normalized to the vehicle-treated control. Error bars in the figures show standard deviation.\nCell viability was measured based on their ability to produce ATP [37]. […] The cells were then lysed with 100 μl of lysis buffer (CellTiter-Glo luminescent cell viability assay, Promega, Fitchburg, WI, Cat. no. G7571) and shaken in the dark for 20 min. Before the luminescence was measured in a FluoStar OPTIMA (BMG Labtech, Ortenberg, Germany) using the following parameters: one kinetic window, 10 measurement cycles with 0.3 s of measurement interval time, 2-s delay per measurement, additional 0.5-s delay per position change (repeated twice for each measured plate). Replicates were performed as described under the ‘Drug treatment’ Section. The data were normalized with reference to a standard curve for ATP and to the untreated control."}, "[4]": {"set-up": "method as in PMID 22407198, PMID 12889529", "settings": "therapeutic dose 4 g/day; cited from earlier work"}}}
{"compound": "[H]/N=C(/N)N/C(=N/[H])NCCc1ccccc1", "note": "[Phenformin]", "values": [{"measurement": "half-life", "setting": "[1]", "result": 7, "unit": "h"}, {"measurement": "Biological half-life (h)", "setting": "[1]", "result": "4–13 h"}]}
{"compound": "O=C(O)Cc1ccccc1Nc1c(Cl)cccc1Cl", "note": "[Diclofenac]", "values": [{"measurement": "Biological half-life (h)", "setting": "[1]", "result": "1–2 h"}, {"measurement": "effectiveness as an anti-inflammatory agent compared with other non-steroidal anti-inflammatory drugs", "setting": "[2]", "result": "3-1000 ×"}]}
{"compound": "CCCC(CCC)C(=O)O", "note": "[VPA, valproic acid]", "values": [{"measurement": "Biological half-life (h)", "setting": "[1]", "result": "10–20 h"}, {"measurement": "acute toxicity threshold", "setting": "HepG2/C3A spheroids", "result": 20, "unit": "mg VPA per mg protein"}, {"measurement": "chronic toxicity threshold", "setting": "HepG2/C3A spheroids", "result": 4, "unit": "mg VPA per mg protein"}, {"measurement": "Toxic dose, μg/ml in blood", "setting": "[3]", "result": "40 to 100", "unit": "µg/mL"}]}
{"compound": "CC(=O)Nc1ccc(O)cc1", "note": "[Paracetamol]", "values": [{"measurement": "chronically lethal dose", "setting": "HepG2–C3A spheroids; four treatments at 48-h intervals killed the spheroids, relative to 20 mg paracetamol per mg protein", "result": "Half of this dose"}, {"measurement": "acutely lethal dose", "setting": "HepG2–C3A spheroids; glucose medium", "result": "20 mg paracetamol per mg protein"}, {"measurement": "Biological half-life (h)", "setting": "[1]", "result": "2–4 h"}, {"measurement": "blood concentration", "setting": "[4]", "result": "10000 to 25000", "unit": "ng/mL"}, {"measurement": "Toxic dose, μg/ml in blood", "setting": "[3]", "result": "100 to 150", "unit": "µg/mL"}]}
{"compound": "CN(C)C(=N)N=C(N)N", "note": "[Metformin]", "values": [{"measurement": "reduction in ATP production", "setting": "HepG2–C3A spheroids; 5 mg/mg (highest dose), glucose medium", "result": 70, "unit": "%"}]}
